Usually pIC50 stands for −log10 of the IC50, conventionally taken in molar units. Low readings indicate a large IC50, high ones a small IC50.

pIC50: −log10 of the molar value. Bounds are passed on as bounds.

The assay concerns the target T1, Interleukin-23 receptor (Homo sapiens, UniProt Q5VWK5).
T1 sequence (Q5VWK5 whole entry): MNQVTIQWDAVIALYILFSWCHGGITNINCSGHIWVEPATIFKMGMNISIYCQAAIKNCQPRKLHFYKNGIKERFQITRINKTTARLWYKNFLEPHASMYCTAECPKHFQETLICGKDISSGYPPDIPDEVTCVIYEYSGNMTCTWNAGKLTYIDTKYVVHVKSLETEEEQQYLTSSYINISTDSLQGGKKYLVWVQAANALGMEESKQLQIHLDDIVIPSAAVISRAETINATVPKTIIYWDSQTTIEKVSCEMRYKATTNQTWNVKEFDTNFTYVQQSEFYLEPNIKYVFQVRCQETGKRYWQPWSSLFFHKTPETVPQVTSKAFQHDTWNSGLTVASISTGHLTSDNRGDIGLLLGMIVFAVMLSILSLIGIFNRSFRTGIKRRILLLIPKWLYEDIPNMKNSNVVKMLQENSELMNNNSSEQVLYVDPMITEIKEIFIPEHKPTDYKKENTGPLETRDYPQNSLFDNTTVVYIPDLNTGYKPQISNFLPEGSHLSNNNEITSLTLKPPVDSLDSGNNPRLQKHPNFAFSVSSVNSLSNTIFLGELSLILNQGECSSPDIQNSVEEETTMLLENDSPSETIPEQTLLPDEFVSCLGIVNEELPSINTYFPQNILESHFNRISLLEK
Kind of assay: Inhibition of interleukin-23 binding to human interleukin-23 receptor incubated for 2 hrs by competitive binding ELISA.
For the molecule `CC(=O)N[C@@H](CS)C(=O)N[C@@H](C)C(=O)N[C@@H](CC(=O)O)C(=O)N[C@@H](Cc1c[nH]c2ccccc12)C(=O)N[C@H](C(=O)N[C@@H](CS)C(=O)N[C@@H](Cc1ccc(O)cc1)C(=O)N[C@@H](Cc1cccc2ccccc12)C(=O)N[C@@H](Cc1cnc[nH]1)C(=O)NC(C)(C)C(=O)N[C@H](Cc1ccccc1)C(=O)NCC(N)=O)C(C)C`, the pIC50 is less than 6.00.

Consider `CC(=O)N[C@@H](CS)C(=O)N[C@@H](C)C(=O)N[C@@H](CC(=O)O)C(=O)N[C@@H](Cc1c[nH]c2ccccc12)C(=O)N[C@H](C(=O)N[C@@H](CS)C(=O)N[C@@H](Cc1ccc(O)cc1)C(=O)N[C@@](C)(Cc1ccc(F)cc1)C(=O)N[C@@H](CCCN)C(=O)N[C@@H](CN)C(=O)N[C@@H](Cc1ccccc1)C(=O)NCC(=O)NCCOCC(=O)N[C@H](CCCCN)C(N)=O)C(C)C`, for which the pIC50 is less than 4.52.

The molecule `CC(=O)N[C@H](CCCCNC(=O)COCC(=O)NCCCC[C@@H](NC(C)=O)C(=O)N[C@@H](CO)C(=O)N[C@@H](CS)C(=O)N[C@@H](C)C(=O)N[C@@H](CC(=O)O)C(=O)N[C@@H](Cc1c[nH]c2ccccc12)C(=O)N[C@H](C(=O)N[C@@H](CS)C(=O)N[C@@H](Cc1ccc(O)cc1)C(=O)N[C@@H](Cc1c[nH]c2ccccc12)C(=O)N[C@@H](Cc1cnc[nH]1)C(=O)N[C@H](C(=O)N[C@@H](Cc1ccccc1)C(=O)NCC(=O)O)[C@@H](C)O)C(C)C)C(=O)N[C@@H](CO)C(=O)N[C@@H](CS)C(=O)N[C@@H](C)C(=O)N[C@@H](CC(=O)O)C(=O)N[C@@H](Cc1c[nH]c2ccccc12)C(=O)N[C@H](C(=O)N[C@@H](CS)C(=O)N[C@@H](Cc1ccc(O)cc1)C(=O)N[C@@H](Cc1c[nH]c2ccccc12)C(=O)N[C@@H](Cc1cnc[nH]1)C(=O)N[C@H](C(=O)N[C@@H](Cc1ccccc1)C(=O)NCC(=O)O)[C@@H](C)O)C(C)C` had a negative-log IC50 (pIC50) of less than 5.00.

In turn, `CC(=O)N[C@@H](CS)C(=O)N[C@@H](CCC(N)=O)C(=O)N[C@H](C(=O)N[C@@H](Cc1c[nH]c2ccccc12)C(=O)N[C@@H](CCC(N)=O)C(=O)N[C@@H](CS)C(=O)N[C@@H](Cc1ccc(O)cc1)C(=O)N[C@@H](Cc1c[nH]c2ccccc12)C(=O)N[C@@H](CCCNC(=N)N)C(=O)N[C@@H](CCCNC(=N)N)C(=O)N[C@@H](CC(N)=O)C(=O)NCC(=O)NCCOCC(=O)N[C@H](CCCCN)C(N)=O)[C@@H](C)O` had a negative-log IC50 (pIC50) greater than 6.30.

Take `CC1CSC[C@@H](C(=O)N[C@@H](Cc2ccc(O)cc2)C(=O)N[C@@H](Cc2c[nH]c3ccccc23)C(=O)N[C@@H](CCCNC(=N)N)C(=O)N[C@@H](CCC(=O)O)C(=O)N[C@@H](CC(N)=O)C(=O)NCC(=O)NCCOCC(=O)N[C@H](CCCCN)C(N)=O)NC(=O)[C@H](CCC(N)=O)NC(=O)[C@H](Cc2c[nH]c3ccccc23)NC(=O)[C@H](CC(=O)O)NC(=O)[C@H](CCC(N)=O)NC1=O` (stereo partly drawn): the pIC50 is 5.22.

Molecule `CC(=O)N[C@@H](CS)C(=O)N[C@@H](C)C(=O)N[C@@H](CC(=O)O)C(=O)N[C@@H](Cc1c[nH]c2ccccc12)C(=O)N[C@H](C(=O)N[C@@H](CS)C(=O)N[C@@H](Cc1ccc(O)cc1)C(=O)N[C@@H](Cc1c[nH]c2ccccc12)C(=O)N[C@@H](Cc1cnc[nH]1)C(=O)N[C@H](C(=O)N[C@@H](Cc1ccccc1)C(=O)NCC(=O)N1CC[C@H]1C(=O)N[C@H](CCCCN)C(=O)O)[C@@H](C)O)C(C)C` gave a pIC50 greater than 6.30.

Molecule `CC(C)[C@H](NC(=O)[C@H](Cc1cccc2ccccc12)NC(=O)[C@H](CC(=O)O)NC(=O)[C@H](C)NC(=O)[C@@H](N)CS)C(=O)N[C@@H](CS)C(=O)N[C@@H](Cc1ccc(O)cc1)C(=O)N[C@@H](Cc1c[nH]c2ccccc12)C(=O)N[C@@H](Cc1cnc[nH]1)C(=O)N[C@H](C(=O)N[C@@H](Cc1ccccc1)C(=O)NCC(N)=O)[C@@H](C)O` gave a pIC50 of less than 6.00.

The molecule `CC(=O)N[C@@H](CS)C(=O)N[C@@H](CCC(N)=O)C(=O)N[C@H](C(=O)N[C@@H](Cc1c[nH]c2ccccc12)C(=O)N[C@@H](CCC(N)=O)C(=O)N[C@@H](CS)C(=O)N[C@@H](Cc1ccc(O)cc1)C(=O)N[C@@H](Cc1c[nH]c2ccccc12)C(=O)N[C@@H](CCCNC(=N)N)C(=O)N[C@@H](CCC(=O)O)C(=O)N[C@@H](CC(N)=O)C(=O)NCC(=O)NCCOCC(=O)N[C@H](CCCCN)C(N)=O)[C@@H](C)O` had a pIC50 greater than 6.30.

(Values after ChEMBL document CHEMBL4417631, “Oral peptide inhibitors of interleukin-23 receptor and their use to treat inflammatory bowel diseases” (2017).)
